Source: publication PMC10695737, “Crystal Modifications of a Cyclic Guanosine Phosphorothioate Analogue, a Drug Candidate for Retinal Neurodegenerations” (ChemistryOpen, 2023)

How the values were obtained:
Assay type in all cases: physicochemical
[1] = Phase solubility in deionized water (HPLC); details: for pH of mixture: aqueous solubility measurements, supplement; for pH at saturation solubility / solubility: deionized H2O, quadruplicates
Procedure: The pH‐solubility profile of cGMPSA salts and free acid was determined by phase solubility techniques.[18] Briefly, saturated mixtures of the compound were prepared by adding excess amount to 4 mL vials containing 2 mL deionized water, an acidic buffer (0.1 M HCl(aq), pH 1), or a basic buffer (0.1 M NaOH(aq), pH 13). They were allowed to equilibrate for 24 h using mild agitation before recording the pH. The clear solution was separated from the solids by filtration with a Cytiva Whatman™ Mini‐Uniprep™ polypropylene 0.45 μm filter device and diluted to an appropriate analytical concentration where needed. The sample was then analyzed by HPLC, and the solubility determined by integrating the area of the peak of interest against a standard curve. The solids were also analyzed by XRPD to record the crystal modification obtained.

[2] = Dynamic vapor sorption (DVS), water sorption as Δm; details: for Water sorption Δm: 25 °C; for Δm after desorption: equilibrated value after desorption cycles; for Observed Δm: DVS step compared to theoretical hydrate mass change; for Stable %RH range: RH range of the corresponding hydrate step on DVS; for change in mass (Δm): at 95 % relative humidity (maximum RH), stated in text
Procedure: The samples were analyzed at 25 °C with a Surface Measurements Systems DVS Advantage. A sample was weighted into a weighing pan and its mass was monitored while it was exposed to different relative humidities (%RH=%P/P0). Before the analysis, the weighing pan was subject to an antistatic program.
The analysis program consisted of two cycles. In each cycle, the relative humidity was increased stepwise up to 95 % RH (starting from 0 % RH, 9 steps with 10 % and one step with 5 %) and then decreased stepwise to 0 % RH again. In both sorption/desorption cycles, at each step, the sample was kept at the set relative humidity until dm/dt <0.002 %, over 15 min.

[3] = Thermal analysis (DSC/TGA), decomposition; details: for Onset of decomposition (DSC exotherm): DSC 25 to 300 °C, 10 °C/min
Procedure: Differential scanning calorimetry (DSC) analyses were carried out on a Mettler DSC822e, equipped with a Thermo Haake EK45/MT cooler. The samples were weighed into a 40 μL Al‐cup, which were then closed with a pierced lid. The sample was scanned from 25 to 300 °C, with a scan rate of 10 °C/min.
Thermogravimetric analysis (TGA) was performed on a Mettler TGA/SDTA 851e, equipped with a Haake C50P cooler. Alternatively, thermogravimetric and DSC analyses were carried out simultaneously in a Mettler Toledo TGA/DSC 3+. The samples were weighed into a 100 μL Al‐cup and this was flushed with dry nitrogen gas during the analysis. The sample was scanned from 25 to 300 °C, with a scan rate of 10 °C/min.

[4] = 0 % RH, after final desorption cycle 2 (D2)
[5] = 30 % RH, desorption cycle 2 (D2)
[6] = 60 % RH, desorption cycle 2 (D2)
[7] = 95 % RH, desorption cycle 2 (D2)
[8] = hydrate step stable over 40–70 % RH
[9] = hydrate step stable over 60–95 % RH

With O=c1c2nc(Br)n([C@@H]3O[C@@H]4COP(=O)([S-])O[C@H]4[C@H]3O)c2nc2[nH]c(-c3ccccc3)cn12.[Na+] (stereo partly shown) [cGMPSA‐Na] the pH of mixture [1] was 5,45, the “pH at saturation solubility” value [1] was 5.5 (±0.2) and the solubility [1] was 38.4 (±11.1) mg/mL. For the same compound, the solubility ([1]; listed as sodium) was 38 mg/mL, the solubility ([1]; listed as ‐Na) was “approximately 40 mg/mL” and the “Water sorption Δm” value [2, 4] was −0.3%. The “Water sorption Δm” value [2, 5] was 6.3%, the “Water sorption Δm” value ([2]; 30 % RH, sorption cycle 1 (S1)) was 2.2% and the “Water sorption Δm” value [2, 6] was 12.5%. For the same compound, the “Water sorption Δm” value ([2]; 60 % RH, sorption cycle 1 (S1)) was 8.1%, the “Water sorption Δm” value [2, 7] was 15.1% and the “Water sorption Δm” value ([2]; 95 % RH, sorption cycle 1 (S1)) was 15.1%. The Δm after desorption ([2]; 0 % RH) was ~ 0 and the “Onset of decomposition (DSC exotherm)” value [3] was 212 °C.

For NC(CO)(CO)CO.O=c1c2nc(Br)n([C@@H]3O[C@@H]4CO[P@@](O)(=S)O[C@H]4[C@H]3O)c2nc2[nH]c(-c3ccccc3)cn12 [cGMPSA‐Tris, Tris(hydroxymethyl)aminomethane RP-8-Bromo-β-phenyl-1,N2-ethenoguanosine-3′,5′-cyclicmonophosphorothiotic acid], the pH of mixture [1] was 8,45, the “pH at saturation solubility” value [1] was 8.5 (±0.1) and the solubility [1] was 13.5 (±3.5) mg/mL. The solubility ([1]; listed as ‐Tris) was about 15 mg/mL, the “Water sorption Δm” value [2, 4] was 3.3% and the “Water sorption Δm” value [2, 5] was 5.5%. The “Water sorption Δm” value ([2]; 30 % RH, sorption cycle 1 (S1)) was 4.9%, the “Water sorption Δm” value [2, 6] was 6.8% and the “Water sorption Δm” value ([2]; 60 % RH, sorption cycle 1 (S1)) was 6.0%. For the same compound, the “Water sorption Δm” value [2, 7] was 32.4%, the “Water sorption Δm” value ([2]; 95 % RH, sorption cycle 1 (S1)) was 32.8% and the “Observed Δm” value [2] was 3.3%. For the same compound, the “Stable %RH range” value [2] was 0–70 %RH, the “change in mass (Δm)” value [2] was 32% and the “initial early sorption Δm” value ([2]; consistent with 1 equivalent of H2O) was about 3%. It also gave a Δm after desorption ([2]; 0 % RH) of 3.3.

For O=c1c2nc(Br)n([C@@H]3O[C@@H]4CO[P@@](O)(=S)O[C@H]4[C@H]3O)c2nc2[nH]c(-c3ccccc3)cn12.O=c1c2nc(Br)n([C@@H]3O[C@@H]4CO[P@@](O)(=S)O[C@H]4[C@H]3O)c2nc2[nH]c(-c3ccccc3)cn12.c1ccc(CNCCNCc2ccccc2)cc1 [cGMPSA‐BZ, N,N′-Dibenzylethylenediammonium RP-8-Bromo-β-phenyl-1,N2-ethenoguanosine-3′,5′-cyclicmonophosphorothioate (1:2)], the pH of mixture [1] was 6,81, the “pH at saturation solubility” value [1] was 6.8 (±0.1) and the solubility [1] was 0.01 (±0.01) mg/mL. The “Water sorption Δm” value [2, 4] was −0.2%, the “Water sorption Δm” value [2, 5] was 0.7% and the “Water sorption Δm” value ([2]; 30 % RH, sorption cycle 1 (S1)) was 0.6%. The “Water sorption Δm” value [2, 6] was 3.9%, the “Water sorption Δm” value ([2]; 60 % RH, sorption cycle 1 (S1)) was 1.9% and the “Water sorption Δm” value [2, 7] was 4.7%. For the same compound, the “Water sorption Δm” value ([2]; 95 % RH, sorption cycle 1 (S1)) was 4.8%, the “Observed Δm” value [2, 8] was 1.3% and the “Observed Δm” value [2, 9] was 3.9%. The “Stable %RH range” value [2, 8] was 40–70 %RH, the “Stable %RH range” value [2, 9] was 60–95 %RH and the “change in mass (Δm)” value [2] was 5%. The “change in mass (Δm)” value ([2]; listed as ‐BZ) was “about 5%”.

With O=c1c2nc(Br)n([C@@H]3O[C@@H]4COP(=O)([S-])O[C@H]4[C@H]3O)c2nc2[nH]c(-c3ccccc3)cn12.O=c1c2nc(Br)n([C@@H]3O[C@@H]4COP(=O)([S-])O[C@H]4[C@H]3O)c2nc2[nH]c(-c3ccccc3)cn12.[Ca+2] (stereo partly shown) [cGMPSA‐Ca] the pH of mixture [1] was 6,88, the “pH at saturation solubility” value [1] was 6.9 (±0.5) and the solubility [1] was 0.28 (±0.2) mg/mL. The “Water sorption Δm” value [2, 4] was 1.9%, the “Water sorption Δm” value [2, 5] was 12.4% and the “Water sorption Δm” value ([2]; 30 % RH, sorption cycle 1 (S1)) was 5.3%. For the same compound, the “Water sorption Δm” value [2, 6] was 15.5%, the “Water sorption Δm” value ([2]; 60 % RH, sorption cycle 1 (S1)) was 7.1% and the “Water sorption Δm” value [2, 7] was 22.0%. The “Water sorption Δm” value ([2]; 95 % RH, sorption cycle 1 (S1)) was 21.9%, the “Observed Δm” value [2] was 1.9% and the “Stable %RH range” value [2] was 0 %RH. The “change in mass (Δm)” value [2] was 22%, the enthalpy of decomposition ([3]; DSC) was 162.3 J/g and the “Onset of decomposition (DSC exotherm)” value [3] was 253.2 °C.
